Experimental findings from patent US12441695B2, “Substituted thiadiazinone dioxide and preparation method therefor, herbicidal composition, and application therefor” (Qingdao Kingagroot Chemical Compound Co., Ltd., priority 2019, dated 2025) are described below.

Data set [1] has as its system major crops (wheat, corn, rice, soybean, cotton, oilseed rape, millet, sorghum). The experiment in a line: Experiment on weeding effect in post-emergence stage (crops). As to conditions: 600 g/ha active ingredient plus water 450 kg/ha, 3 weeks after application; for corn plant damage level (growth control rate): crop corn; for rice plant damage level (growth control rate): crop rice. The data set is classed as in vivo. An outline of the steps: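 Weed and crop seeds were sown in soil-filled pots, covered with 0.5–2 cm soil and grown in a greenhouse. Plants were sprayed 2–3 weeks after sowing using a spray tower, with compound dissolved in acetone plus Tween 80 and diluted in water. Effect was expressed as fresh-weight growth control rate.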

In data set [2] the test system is monocotyledonous and dicotyledonous weeds. Nature of the data set: Experiment on weeding effect in post-emergence stage (weeds). The data set is classed as in vivo. The note with it: 600 g/ha active ingredient plus water 450 kg/ha, 3 weeks after application, fresh weight control rate; for Amaranthus retroflexus activity level (growth control rate): fomesafen-resistant Amaranthus retroflexus. An outline of the steps: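 Greenhouse pot-grown weeds and crops sprayed post-emergence 2–3 weeks after sowing with compound in acetone/Tween 80/water. Fresh-weight growth control scored after 3 weeks on a 0–5 scale (5: >85%, 0: <5%).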

For the compound `CC(C)OC(=O)N1c2c(F)cc(F)cc2C(=O)N(C(C)C)S1(=O)=O` [Compound 219], in data set [1], the “corn plant damage level (growth control rate)” value (shortened to “corn plant damage level”) is 1 (Level 1: growth control rate is greater than or equal to 500 and less than 200%). Besides, in data set [2], the “Amaranthus retroflexus activity level (growth control rate)” value (“Amaranthus retroflexus activity level” below) is 5 (Level 5: growth control rate is above 85%); the “Digitaria sanguinalis activity level (growth control rate)” value (“Digitaria sanguinalis activity level” below) is 3 (Level 3: growth control rate is greater than or equal to 40% and less than 60%); the “Echinochloa crus-galli activity level (growth control rate)” value (“Echinochloa crus-galli activity level” for short) was 5 (Level 5: growth control rate is above 85%); the “Setaria viridis activity level (growth control rate)” value (shortened to “Setaria viridis activity level”) is recorded as 5 (Level 5: growth control rate is above 85%).

Take `CCCCOC(=O)N1c2c(F)cc(F)cc2C(=O)N(C(C)C)S1(=O)=O` [Compound 220]: the “corn plant damage level” value in data set [1] was 1 (Level 1: growth control rate is greater than or equal to 500 and less than 200%). In addition, in data set [2], the “Amaranthus retroflexus activity level” value is 4 (Level 4: growth control rate is greater than or equal to 60% and less than 85%); the “Digitaria sanguinalis activity level” value was 3 (Level 3: growth control rate is greater than or equal to 40% and less than 60%); the “Echinochloa crus-galli activity level” value is 5 (Level 5: growth control rate is above 85%); the “Setaria viridis activity level” value is 5 (Level 5: growth control rate is above 85%).

For `CCCCCCCCSC(=O)N1c2c(F)cc(F)cc2C(=O)N(C(C)C)S1(=O)=O` [Compound 222], in data set [1], the “corn plant damage level” value is listed as 0 (Level 0: growth control rate is less than 5%) and the “rice plant damage level (growth control rate)” value (“rice plant damage level” for short) is reported as 0 (Level 0: growth control rate is less than 5%). In data set [2], the “Amaranthus retroflexus activity level” value is given as 5 (Level 5: growth control rate is above 85%).

`CC(C)N1C(=O)c2cc(F)cc(F)c2N(C(=O)N(C)C)S1(=O)=O` [Compound 223]: in data set [1], the “corn plant damage level” value was 0 (Level 0: growth control rate is less than 5%) and the “rice plant damage level” value is on record as 0 (Level 0: growth control rate is less than 5%). In data set [2], the “Amaranthus retroflexus activity level” value was 5 (Level 5: growth control rate is above 85%); the “Digitaria sanguinalis activity level” value was 5 (Level 5: growth control rate is above 85%); the “Echinochloa crus-galli activity level” value was 3 (Level 3: growth control rate is greater than or equal to 40% and less than 60%); the “Setaria viridis activity level” value is recorded as 5 (Level 5: growth control rate is above 85%).

In the case of `CCCS(=O)(=O)N1c2c(F)cc(F)cc2C(=O)N(C(C)C)S1(=O)=O` [Compound 229], in data set [1], the “corn plant damage level” value was 1 (Level 1: growth control rate is greater than or equal to 500 and less than 200%). Also, the “Amaranthus retroflexus activity level” value in data set [2] was 3 (Level 3: growth control rate is greater than or equal to 40% and less than 60%).

As to `CC(C)N1C(=O)c2cccc(F)c2NS1(=O)=O` [D, reference compound], in data set [1], the “corn plant damage level” value is reported as 0 (Level 0: growth control rate is less than 5%) and the “rice plant damage level” value is on record as 0 (Level 0: growth control rate is less than 5%). In addition, the “soybean plant damage level (growth control rate)” value in data set [1] (crop soybean) was 1 (Level 1: growth control rate is greater than or equal to 500 and less than 200%). In data set [2], the “Amaranthus retroflexus activity level” value is 2 (Level 2: growth control rate is greater than or equal to 20% and less than 40%); the “Digitaria sanguinalis activity level” value was 1 (Level 1: growth control rate is greater than or equal to 500 and less than 200%); the “Echinochloa crus-galli activity level” value is 1 (Level 1: growth control rate is greater than or equal to 500 and less than 200%); the “Setaria viridis activity level” value is 2 (Level 2: growth control rate is greater than or equal to 20% and less than 40%).
